Data from patent US6416585B1, “Method for crystallizing polyols and sugars” (Vomm Chemipharma S.r.l., priority 1999, dated 2002).

Experiment: solubility of the crystallized granular sorbitol compared with the prior art
Assay type: physicochemical
Settings: sorbitol granules of Example 1 after two hours long maturation; in comparison with the prior art

OC[C@@H](O)[C@@H](O)[C@H](O)[C@@H](O)CO [sorbitol granules, sorbitol]
solubility: definitely improved
